Experimental data published in US5620959A, “Bombesin antagonists” (Glaxo Wellcome Inc., priority 1990, dated 1997).

Target: 3T3 ROZ cells (Mus musculus, UniProt P21729)
Assay: Inhibition of bombesin-stimulated mitogenesis (3H-thymidine uptake) of quiescent 3T3 ROZ cells
Type: cell-based
Conditions: compared with the peptide from the other stereoisomer at the hydroxy position; test not named at b235
Method: Antagonistic activity was measured by inhibition of the mitogenic stimulation of quiescent 3T3 ROZ cells. […] Cells were incubated for eighteen hours with 10 ng/mL of BN either alone or in the presence of an antagonist. Cells were then pulsed-labeled for 2 hours with ^3 H-thymidine and washed. The incorporated ^3 H was then counted.
Potency of antagonists was measured by inhibition of this maximum response down to baseline level. IC50 values were determined from titration curves.

Chain of 3T3 ROZ cells (P21729 whole entry): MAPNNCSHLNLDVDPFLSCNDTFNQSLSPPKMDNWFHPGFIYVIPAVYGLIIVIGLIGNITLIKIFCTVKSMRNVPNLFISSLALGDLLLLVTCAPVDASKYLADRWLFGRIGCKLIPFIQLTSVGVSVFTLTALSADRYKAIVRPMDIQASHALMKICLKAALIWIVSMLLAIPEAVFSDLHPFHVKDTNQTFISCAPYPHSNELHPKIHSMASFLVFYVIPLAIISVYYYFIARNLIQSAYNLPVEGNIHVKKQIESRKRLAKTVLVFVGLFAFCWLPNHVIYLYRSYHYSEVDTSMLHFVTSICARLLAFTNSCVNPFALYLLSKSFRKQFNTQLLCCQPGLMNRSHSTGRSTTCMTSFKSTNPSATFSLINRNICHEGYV

CC(C)[C@H](NC(=O)[C@H](C)NC(=O)[C@H](Cc1c[nH]c2ccccc12)NC(=O)[C@H](Cc1c[nH]cn1)NC(=O)CCc1ccccc1)C(=O)N[C@H](C)C(=O)N[C@@H](Cc1c[nH]cn1)C(=O)N1CCC[C@@H]1C(O)CC(=O)N[C@@H](Cc1ccccc1)C(N)=O (single isomer, unassigned) [N--((3-Phenyl)Propionyl)--HisTrpAlaVal D--AlaHis(3-(2-Pyrrolidinyl-3Hydroxy)Propionyl)--Phe--NH2]
relative activity of the two peptides made from the two hydroxy stereoisomers: the more active of the two
